Reference: patent publication US5688793A, “Pyridazino[4',5':3,4]pyrrolo-[2,1-a]-isoquinolines and the use thereof for preparing pharmaceutical preparations” (Boehringer Ingelheim GmbH, priority 1993, dated 1997)

tested on: RBL-2H3-cells; test: Antigen (DNP-BSA)-induced activation of sensitised RBL-2H3 cells, fluorometric cytoplasmic calcium measurement; format: cell-based; settings: Rattus norvegicus, read-out: inhibition of the antigen-induced cell activation
Procedure: Individual RBL-2H3-cells (a turnout cell line related to the mast cells) adhering to glass slides are used.
The cultivation and attachment of the RBL-2H3-cells are carried out by the method described by HIDE and BEAVEN (1991). In order to sensitise the adhesive RBL-2H3-cells the cells are incubated for 2 hours at ambient temperature with a 1:2000 diluted commercial gammaglobulin E-solution against a dinitrophenol-bovine serum albumin complex (DNP-BSA-antigen). The cells are then washed. By the addition of 0.1 ml of DNP-BSA-solution (10 μg/ml) there is a massive immunological cell activation which is mediated by a cytoplasmic Ca^2+ -overload. The fluorometric calcium measurement in the cytoplasm of individual adhering RBL-2H3-cells is carried out analogously to the method described by KUDO and OGURA (1986) for neuronal cells, which is also explained hereinbefore in this specification.
The comparison used in these investigations is (10 μM) chromoglycate which brings about an approximately 50% inhibition of the antigen-induced cell activation.

SMILES	inhibition at 10 µM [%]
O=C(O)c1cc(=O)c2c(OCC(O)COc3cccc4oc(C(=O)O)cc(=O)c34)cccc2o1 [chromoglycate]	~50

tested on: unselective cation channels (UCC); test: Thapsigargin-stimulated calcium entry through unselective cation channels in fura-2-charged RBL-hm 1 cells; format: cell-based, rat; settings: 10^-5 M test substance, Thapsigargin (0.1 μM) stimulation
Procedure: For screening purposes, fura-2-charged adhesive RBL-hm 1 cells are stimulated with […] Thapsigargin in a Ca^2+ -free incubation medium. After 4 minutes, extracellular Ca^2+ is restored to a concentration of 1.5 mM and, using the fura-2-fluorescence, the excessive increase in the cytoplasmic Ca^2+ -concentration caused by a massive transmembranal Ca^2+ -entry through unselective cation channels is recorded.
The fluorometric calcium measurement in the cytoplasm of individual adhering RBL-hm1 cells is carried out analogously to the method described by KUDO and OGURA (1986) for neuronal cells. An AXIOVERT 35 fluorescence microscope made by ZEISS is used in conjunction with an imaging system made by HAMAMATSU, consisting of the ICMS-image processing system, residual light camera with control unit and image intensifier DVS 3000.
The kinetics of the cytoplasmic Ca^2+ -concentration is recorded continuously as a concentration/time curve after the cell activation stimulated by Thapsigargin (0.1 μM). […] The area under these curves (area under the curve=AUC) is integrated and recorded as a measurement of cell activation. The inhibitory potency of the UCC-blockers tested is determined using the following equation: [formula] […]
AUC control=area under the curve which is recorded only after the addition of the stimulant.
The percentage inhibition of UCC after Thapsigargin stimulation (0.1 μM Thapsigargin) in RBL-hm 1 cells is given. […]

SMILES	% H (10^-5 M), percentage inhibition of the calcium entry through unselective cation channels [%]
COc1cc2c(cc1OC)-c1c3cnnc(SCCCCOc4ccccc4F)c3cn1CC2	61.6
COc1cc2c(cc1OC)-c1c3cnnc(SCc4ccc(Br)cc4)c3cn1CC2	62.9
COc1cc2c(cc1OC)-c1c3cnnc(SCc4cccc(Cl)c4)c3cn1CC2	81.9
COc1cc2c(cc1OC)-c1c3cnnc(SCc4ccc(F)cc4)c3cn1CC2	94.6
COc1cc2c(cc1OC)-c1c3cnnc(SCc4ccccc4)c3cn1CC2	97.5
COc1cc2c(cc1OC)-c1c3cnnc(OC)c3cn1CC2 [CH3 (X:O), 5,6-Dihydro-2,3,9-trimethoxypyridazino[4',5':3,4]-pyrrolo[2,1-a]isoquinoline]	62.5
COc1cc2c(cc1OC)-c1c3cnnc(SC)c3cn1CC2 [CH3 (X:S), reference compound]	46.4
